Source: patent US10335365B2, “Bladder cancer specific ligand peptides” (The Regents of the University of California, priority 2009, dated 2019)
Entries after “also recorded” stand apart in the source; their conditions may differ. Positions of bridges follow the written chain, without caps; N, C: chain ends. Non-standard residues stand in square brackets, D forms with d. No end group written: not given here.

Key:
K9TCC-PU = experiment: Binding affinity by PLZ4-biotin / avidin-HRP on fixed K9TCC-PU cells; parameters: species or system canine; settings: restated in b239 without cell line, read-out: Kd50
Experimental: (§1) FIG. 8A-B. Binding affinity and biological effects of PLZ4 against canine TCC cell lines. A. Binding affinity of PLZ4 against K9TCC-PU and K9TCC-PU-In. Twenty thousands of K9TCC-PU and K9TCC-PU-In were seeded in 96 well plates. After culture for 24 hours, cells were fixed and incubated with different concentrations of PLZ4-biotin for 1.5 hours following avidin-HRP for another 1 hour. Cells treated with avidin-HRP only were served as background control. The color was developed using TMB substrate and read by ELISA readers. The experiment was performed in triplicates and repeated for 3 times. The mean value of the 3 experiments were shown. B. Biological effects of PLZ4 on canine TCC cell lines. Ten thousand K9TCC-PU-In and K9TCC-PU cells were seeded in the 96 well plates and treated with increasing concentrations of PLZ4 or PBS for 2 days. The cell proliferation assay was assessed by WST-8 assay per manufacturer's protocol. Cells treated with PBS were used as 100% control. Each group was performed in triplicate, repeated for 3 times. Mean values at each concentration are presented.
(§2) To further quantify the binding affinity, K9TCC-PU and K9TCC-PU-In cells were seeded in 96 well plates, fixed, and incubated with increasing concentrations of PLZ4-biotin followed by avidin-HRP. […]

[1] = test system: cancer cells from canine bladder TCC clinical specimen; experiment: Binding to canine bladder TCC clinical specimen cells
fibroblasts = experiment: Whole cell bead binding assay, fibroblasts; settings: peptide on beads
[2] = target: T1, K562 cells transfected with a503 integrin (Homo sapiens, UniProt P05106+P06756); experiment: Bead binding to K562 cells transfected with integrin; settings: OBOC beads bearing PLZ4
T1 construct: expressed in transfected cells; host or cells: K562
Experimental: (§3) Here, OBOC beads bearing PLZ4 peptides on the surface were incubated with K562 cells transfected with various integrins. K562 cells express endogenous a501 integrin. […] Several other ligands obtained from the initial screening also contain the DGR motif. […] To identify which amino acids are involved in determining cell binding and binding specificity, “alanine walk” was performed combined with the rainbow bead coding methods (Luo, et al., J Comb Chem, (2008) 10: 599-604). The amino acids aspartic acid (D, the X2 position), arginine (R, X4) and phenylalanine (F, X7) are important for cell binding. Replacement of any of these amino acids with alanine completely abolished the binding of the peptides to 5637 cells (FIG. 6B). […] Methionine at the X5 position could be replaced to many other amino acids without compromising the binding affinity. Based on this analysis, the three amino acids (D, G and R) at the N-terminus together with the two amino acids (G and F) at the C-terminus determine the binding specificity. Therefore, the binding pocket may be in the clover shape: one for the N-terminal three amino acids, one for the C-terminal two amino acids and a middle pocket. So w the depth of the middle binding pocket by adding different numbers of glycine residue to the X5 position. […]

[3] = test system: parental K562 cells or cells transfected other integrins; experiment: Bead binding to parental K562 cells or cells transfected with other integrins; settings: OBOC beads bearing PLZ4
Experimental: as §3

K9TCC-PU-In = experiment: Binding affinity by PLZ4-biotin / avidin-HRP on fixed K9TCC-PU-In cells; parameters: species or system canine; settings: restated in b239 without cell line, read-out: Kd50
Experimental: as §1, §2

K9TCC cells = experiment: Whole cell binding assay of Example 2, canine TCC cells; settings: PLZ4 beads, 10^6 cells/ml
Experimental: This experiment was repeated 3 times for cell lines. […] 5637 human bladder cancer cell line; b. […] The average diameter of the beads is 90 μm. […] This experiment was repeated for 3 times. (200×)
To determine the binding of PLZ4 to canine TCC cell lines, whole cell binding assay was performed. PLZ4 was synthesized on TentaGel S NH2 resin beads (Rapp Polymere Gmbh, Germany) (Pegram, et al., J Clin Oncol (1998) 16:2659-2671), and incubated with single suspensions of five different canine carcinoma cell lines including K9TCC-PU, K9TCC-PU-AxA, K9TCC-PU-In, K9TCC-PU-AxC, and K9TCC-PU-Nk (kindly provided by Deborah Knapp at Purdue University, West Lafayette, Ind., USA) at 10^6 cells/ml. The negative control was normal urothelial cells obtained from dogs that were euthanized due to non-bladder-related disorders. Human bladder cancer cell line, 5637 were served as the positive control. If PLZ4 bound to cells in suspension, then the bead surface was covered with cells. Over 95% of the bead surface was covered with 5637 and K9TCC cells (FIG. 7A-a and b, respectively).

[4] = test system: K9TCC, K9TCC-PU-In and K9TCC-PU-Nk cells; experiment: WST-8 cell proliferation assay; format: cell-based, canine; settings: 48 hours, various concentrations, compared with PBS control
Experimental: as §1
Ligand binding on the cell surface molecules may initiate cell signaling and exert biological effects on cells. The effect of PLZ4 on cell viability and proliferation was determined, as it may have potential clinical applications. […]

T1 sequence (P06756 31-889 limits assumed): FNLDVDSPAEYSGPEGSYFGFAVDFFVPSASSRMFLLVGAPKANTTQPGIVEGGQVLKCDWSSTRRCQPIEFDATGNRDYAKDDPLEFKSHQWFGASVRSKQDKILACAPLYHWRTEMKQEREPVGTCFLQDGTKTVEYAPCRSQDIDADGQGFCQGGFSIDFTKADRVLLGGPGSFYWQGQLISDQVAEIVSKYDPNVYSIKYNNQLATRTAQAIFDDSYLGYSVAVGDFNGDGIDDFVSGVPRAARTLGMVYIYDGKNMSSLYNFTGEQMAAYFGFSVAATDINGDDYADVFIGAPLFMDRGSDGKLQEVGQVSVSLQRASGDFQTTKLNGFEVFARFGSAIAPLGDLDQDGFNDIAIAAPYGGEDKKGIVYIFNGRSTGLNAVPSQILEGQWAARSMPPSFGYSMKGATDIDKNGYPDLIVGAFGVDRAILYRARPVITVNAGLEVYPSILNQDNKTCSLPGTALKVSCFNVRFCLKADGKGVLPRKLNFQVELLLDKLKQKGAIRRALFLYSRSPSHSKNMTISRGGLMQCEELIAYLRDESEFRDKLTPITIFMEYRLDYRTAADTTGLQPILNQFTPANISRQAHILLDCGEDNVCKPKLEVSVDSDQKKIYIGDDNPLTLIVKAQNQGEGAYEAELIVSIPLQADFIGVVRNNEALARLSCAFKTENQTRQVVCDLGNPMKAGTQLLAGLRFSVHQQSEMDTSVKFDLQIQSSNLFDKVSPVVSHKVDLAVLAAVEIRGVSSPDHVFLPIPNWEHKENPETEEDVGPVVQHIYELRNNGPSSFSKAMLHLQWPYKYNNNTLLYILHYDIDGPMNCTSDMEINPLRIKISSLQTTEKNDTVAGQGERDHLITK
T1 sequence (P06756 891-1048 partner limits assumed): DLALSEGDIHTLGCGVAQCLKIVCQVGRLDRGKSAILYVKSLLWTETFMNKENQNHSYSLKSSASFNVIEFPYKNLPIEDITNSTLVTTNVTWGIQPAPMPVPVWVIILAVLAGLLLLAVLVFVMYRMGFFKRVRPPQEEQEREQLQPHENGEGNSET
T1 sequence (P05106 27-788): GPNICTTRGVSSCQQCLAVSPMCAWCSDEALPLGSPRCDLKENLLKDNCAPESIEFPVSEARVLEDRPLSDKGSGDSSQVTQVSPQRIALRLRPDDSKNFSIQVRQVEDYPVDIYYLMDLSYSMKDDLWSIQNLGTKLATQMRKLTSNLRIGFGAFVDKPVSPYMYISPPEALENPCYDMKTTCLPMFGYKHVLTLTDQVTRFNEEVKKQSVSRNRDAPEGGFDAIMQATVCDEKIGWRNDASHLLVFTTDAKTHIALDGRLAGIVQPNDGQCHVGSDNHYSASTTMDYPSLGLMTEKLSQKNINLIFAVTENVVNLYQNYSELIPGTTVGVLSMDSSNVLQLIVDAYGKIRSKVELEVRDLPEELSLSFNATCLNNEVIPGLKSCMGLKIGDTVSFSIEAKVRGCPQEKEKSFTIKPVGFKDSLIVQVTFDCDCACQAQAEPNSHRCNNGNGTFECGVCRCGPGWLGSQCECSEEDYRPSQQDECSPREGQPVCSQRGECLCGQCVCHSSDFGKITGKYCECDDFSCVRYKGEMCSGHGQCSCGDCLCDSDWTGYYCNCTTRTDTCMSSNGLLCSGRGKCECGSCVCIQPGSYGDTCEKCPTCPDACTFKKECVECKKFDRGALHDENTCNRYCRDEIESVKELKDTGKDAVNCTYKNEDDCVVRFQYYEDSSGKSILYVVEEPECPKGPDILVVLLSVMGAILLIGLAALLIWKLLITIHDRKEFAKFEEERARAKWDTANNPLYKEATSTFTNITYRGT

For “cQDGRMGFc ([dC]QDGRMGF[dC]; disulfide 1-9 (inferred)) [PLZ4, bladder cancer-specific ligand peptide]”, which Kd (K9TCC-PU) is on record?
The Kd was 21.3 µM.

What about the “binding to primary canine bladder cancer cells from a clinical specimen” value [1] of the same substance?
The value was “could bind to primary canine bladder cancer cells; also recorded: could bind to cancer cells from one canine bladder TCC clinical specimen”.

And the binding to fibroblasts (fibroblasts)?
Its binding to fibroblasts is “did not bind”.

What about the “binding to K562 cells transfected with a503 integrin” value [2] of the same substance?
Its value is “bound”.

And the “binding to parental K562 cells or cells transfected with other integrins” value [3]?
The value was “not to the parental K562 cells or cells transfected other integrins”.

And the Kd (K9TCC-PU-In)?
Its Kd is 10.3 µM.

And the “bead surface covered with cells” value (K9TCC cells)?
The value was “Over 95%”.

And the cell proliferation/viability [4]?
The cell proliferation/viability was “no significant changes in cell proliferation/viability”.
